Reference: PubChem BioAssay AID1963421 (Molecular Pharmacology Branch, DTP, NCI, 2024)

Test system: 519858-162-T-J1-PDC complex spheroid growth, % test/control
Test: Anticancer human tumor 519858-162-T-J1-PDC patient-derived colon adenocarcinoma cell line growth inhibition [Asc]
Settings: for IC50: curve of first compound; for viability, T/C: stronger effect = lower value
Summary of the method: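 Spheroid model: tumor line + HUVEC + hMSC. Single agents and combinations; top conc. at/near clinical Cmax (10 microM if undetermined), half-log dilutions. DMSO stocks at 800-fold test concentration.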

[1] = second compound 0.0316 µM, first compound 0.0316 µM
[2] = second compound 0.0316 µM, first compound 0.1 µM
[3] = second compound 0.0316 µM, first compound 0.316 µM
[4] = second compound 0.0316 µM, first compound 1 µM
[5] = second compound 0.1 µM, first compound 0.0316 µM
[6] = second compound 0.1 µM, first compound 0.1 µM
[7] = second compound 0.1 µM, first compound 0.316 µM
[8] = second compound 0.1 µM, first compound 1 µM
[9] = second compound 0.316 µM, first compound 0.0316 µM
[10] = second compound 0.316 µM, first compound 0.1 µM
[11] = second compound 0.316 µM, first compound 0.316 µM
[12] = second compound 0.316 µM, first compound 1 µM
[13] = second compound 1 µM, first compound 0.0316 µM
[14] = second compound 1 µM, first compound 0.1 µM
[15] = second compound 1 µM, first compound 0.316 µM
[16] = second compound 1 µM, first compound 1 µM
[17] = second compound 3.16 µM, first compound 0.0316 µM
[18] = second compound 3.16 µM, first compound 0.1 µM
[19] = second compound 3.16 µM, first compound 0.316 µM
[20] = second compound 3.16 µM, first compound 1 µM
[21] = second compound 10 µM, first compound 0.0316 µM
[22] = second compound 10 µM, first compound 0.1 µM
[23] = second compound 10 µM, first compound 0.316 µM
[24] = second compound 10 µM, first compound 1 µM
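Note: seven day drug exposure begun three days after spheroid seeding.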
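Throughout, for viability, T/C: 100% = DMSO vehicle wells and lower values mean less viable spheroid.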

In the case of C#Cc1c(F)ccc2cc(O)cc(-c3ncc4c(N5CC6CCC(C5)N6)nc(OCC56CCCN5CC(F)C6)nc4c3F)c12 (centres undefined) + Cc1c(S(C)(=O)=O)c(-c2cc(F)cc(N3CCN(c4ccc(NS(=O)(=O)c5ccc(NC(CCN6CCC(C(=O)OCCCP(=O)(O)O)CC6)CSc6ccccc6)c(S(=O)(=O)C(F)(F)F)c5)cc4)CC3)c2)c(-c2ccc(Cl)cc2)n1C(C)C, the IC50 (second compound 0.0316 µM) is reported as greater than 10 µM, the IC50 (second compound 0.1 µM) is reported as greater than 10 µM and the IC50 (second compound 0.316 µM) is reported as greater than 10 µM. For the same compound, the IC50 (second compound 1 µM) was greater than 10 µM, the IC50 (second compound 3.16 µM) was greater than 10 µM and the IC50 (second compound 10 µM) was greater than 10 µM. For the same compound, the viability, T/C [1] was 117%, the viability, T/C [2] was 88.2% and the viability, T/C [3] was 89.7%. The viability, T/C [4] was 89.5%, the viability, T/C (second compound 0.0316 µM, first compound 3.16 µM) was 81.6% and the viability, T/C (second compound 0.0316 µM, first compound 10 µM) was 83.9%. The viability, T/C [5] was 60.5%, the viability, T/C [6] was 109% and the viability, T/C [7] was 105%. The viability, T/C [8] was 99.7%, the viability, T/C (second compound 0.1 µM, first compound 3.16 µM) was 87.1% and the viability, T/C (second compound 0.1 µM, first compound 10 µM) was 89.6%. It also gave a viability, T/C [9] of 88.2%, a viability, T/C [10] of 88.3% and a viability, T/C [11] of 82.6%. The viability, T/C [12] was 77.3%, the viability, T/C (second compound 0.316 µM, first compound 3.16 µM) was 64.6% and the viability, T/C (second compound 0.316 µM, first compound 10 µM) was 56.9%. The viability, T/C [13] was 84.4%, the viability, T/C [14] was 75.1% and the viability, T/C [15] was 84%. For the same compound, the viability, T/C [16] was 58.2%, the viability, T/C (second compound 1 µM, first compound 3.16 µM) was 78.7% and the viability, T/C (second compound 1 µM, first compound 10 µM) was 82.7%. For the same compound, the viability, T/C [17] was 70.6%, the viability, T/C [18] was 79.9% and the viability, T/C [19] was 58.9%. The viability, T/C [20] was 57.3%, the viability, T/C (second compound 3.16 µM, first compound 3.16 µM) was 95.8% and the viability, T/C (second compound 3.16 µM, first compound 10 µM) was 67.8%. The viability, T/C [21] was 62.9%, the viability, T/C [22] was 66.2% and the viability, T/C [23] was 65.9%. It also gave a viability, T/C [24] of 56.6%, a viability, T/C (second compound 10 µM, first compound 3.16 µM) of 60.1% and a viability, T/C (second compound 10 µM, first compound 10 µM) of 77.5%.
CNC(C)C(=O)NC1CN(S(=O)(=O)c2cccc(S(=O)(=O)N3CCC4CCC(C(=O)NC(c5ccccc5)c5ccccc5)N4C(=O)C(NC(=O)C(C)NC)C3)c2)CCC2CCC(C(=O)NC(c3ccccc3)c3ccccc3)N2C1=O (centres undefined) + Cc1c(S(C)(=O)=O)c(-c2cc(F)cc(N3CCN(c4ccc(NS(=O)(=O)c5ccc(NC(CCN6CCC(C(=O)OCCCP(=O)(O)O)CC6)CSc6ccccc6)c(S(=O)(=O)C(F)(F)F)c5)cc4)CC3)c2)c(-c2ccc(Cl)cc2)n1C(C)C gave an IC50 (second compound 0.0316 µM) greater than 1 µM, an IC50 (second compound 0.1 µM) greater than 1 µM and an IC50 (second compound 0.316 µM) greater than 1 µM. The IC50 (second compound 1 µM) was greater than 1 µM, the IC50 (second compound 3.16 µM) was greater than 1 µM and the IC50 (second compound 10 µM) was 0.506 µM. The viability, T/C (second compound 0.0316 µM, first compound 0.00316 µM) was 92.5%, the viability, T/C (second compound 0.0316 µM, first compound 0.01 µM) was 110% and the viability, T/C [1] was 45%. For the same compound, the viability, T/C [2] was 110%, the viability, T/C [3] was 81.5% and the viability, T/C [4] was 81.5%. The viability, T/C (second compound 0.1 µM, first compound 0.00316 µM) was 113%, the viability, T/C (second compound 0.1 µM, first compound 0.01 µM) was 117% and the viability, T/C [5] was 124%. It also gave a viability, T/C [6] of 90%, a viability, T/C [7] of 76.7% and a viability, T/C [8] of 97.5%. For the same compound, the viability, T/C (second compound 0.316 µM, first compound 0.00316 µM) was 104%, the viability, T/C (second compound 0.316 µM, first compound 0.01 µM) was 107% and the viability, T/C [9] was 86.8%. For the same compound, the viability, T/C [10] was 78.5%, the viability, T/C [11] was 72.3% and the viability, T/C [12] was 87.1%. It also gave a viability, T/C (second compound 1 µM, first compound 0.00316 µM) of 102%, a viability, T/C (second compound 1 µM, first compound 0.01 µM) of 100% and a viability, T/C [13] of 83.6%. It also gave a viability, T/C [14] of 93%, a viability, T/C [15] of 96.5% and a viability, T/C [16] of 68.9%. For the same compound, the viability, T/C (second compound 3.16 µM, first compound 0.00316 µM) was 86.9%, the viability, T/C (second compound 3.16 µM, first compound 0.01 µM) was 93% and the viability, T/C [17] was 95.7%. It also gave a viability, T/C [18] of 82.5%, a viability, T/C [19] of 66.8% and a viability, T/C [20] of 75%. For the same compound, the viability, T/C (second compound 10 µM, first compound 0.00316 µM) was 60.5%, the viability, T/C (second compound 10 µM, first compound 0.01 µM) was 63.2% and the viability, T/C [21] was 70.2%. It also gave a viability, T/C [22] of 49%, a viability, T/C [23] of 63.1% and a viability, T/C [24] of 33.9%.
